Patent US20030170252A1, “Antibody compositions specific for p33QIK and p63Krs1 polypeptides and uses thereof” (priority 2000, published 2003)
Residues, ends and D or L forms follow the SMILES beside them. *: point of attachment. Cbz = O=C(OCc1ccccc1)*; CH2F = FC*

Experiments:
Assay type in all cases: cell-based, mouse
p33^QIK = assay: In-gel kinase assay (MBP substrate) of p33^QIK activity in treated NIH3T3 cultures; settings: for kinase activity of p33^QIK: quiescent NIH3T3 cultures (48 hr serum starvation) stimulated with reagent, 1-6 hr
Procedure: (§1) Mouse NIH3T3 fibroblast cultures were maintained in Dulbecco's modified Eagle's medium (DMEM)(BRL/GIBCO, Grand Island, N.Y.) supplemented with 5% calf serum, 50 units/ml penicillin, and 5 mcg/ml streptomycin, and cultivated at 37° C.
(§2) Mouse 10T1/2 fibroblast cultures were maintained in Basal medium Eagle (BRL/GIBCO, Grand Island, N.Y.) supplemented with 10% heat-inactivated fetal bovine serum, 50 U/ml penicillin, and 5 μg/ml streptomycin, and cultivated at 37° C. Cells synchronized in quiescent state were growth-arrested by serum starvation for 48 hr. Actinomycin D (ActD), cycloheximide (CHXM), 12-0-tetradecanoylphorbol 13-acetate (TPA), staurosporine (STSP) (Sigma Chemical, St. Louis, Mo.), sodium fluoride (NaF), sodium orthovanadate (Na3VO4) (Fisher Scientific, Pittsburgh, Pa.), and FR901228 (FR)(NCI, Frederick, Md.) were diluted in cultured medium before treatment of cultured cells. A broad range caspase inhibitor Z-Asp-[(2,6-dichlorobenzoyl)oxy]methane (Z-D-CH2-DCB) (Dolle et al., 1994; Mashima et al., 1995)(CALBIOCHEM, La Jolla, Calif.) was dissolved in dimethyl sulfoxide and diluted in cultured medium for treatment. Recombinant human Caspase-3 was purchased from Alexis Biochemicals (San Diego, Calif.). Protein phosphatase 1 (PP1) and Lambda protein phosphatase (λPPase) were purchased from NE BioLabs (Beverly, Mass.). Production of rabbit polyclonal antibody Ab-KQ to p63^Krsl and p33^QIK was made using peptide sequences of Krsl as antigens (Alpha Diagnostic International, San Antonio, Tex.). UV irradiation was carried out using a UV Crosslinker (Stratagene, La Jolla, Calif.).
(§3) Cells were lysed with 30 strokes of a tight-fitting Dounce homogenizer in lysis A buffer (10 mM KH2PO4, 1 mM EDTA, 5 mM EGTA, 10 mM MgCl2, 50 mM […], 1 mM Na3VO4, 2 mM dithiothreitol) (Wang et al., 1992). Cytoplasmic proteins (S20) were isolated from the supernatants after centrifugation of crude lysates at 20,000 ×g for 20 min. Protein concentration in S20 was measured by using the BCA assay (Pierce, Rockford, Ill.). Immunoprecipitation of p33^QIK was carried out by incubation of S20 with the specific antibody Ab-KQ at 0° C. for 1 hr. Immune complexes were adsorbed to Pansorbin (Staphylococcus aureus) (CALBIOCHEM, La Jolla, Calif.) at 0° C. for 30 min and washed with STE buffer (50 mM Tris-HCl, pH 7.0, 150 mM NaCl, 1 mM Na2 EDTA) supplemented with 0.1 mM DTT and 0.1% NP-40 and ST buffer supplemented with 1 mM DTT.
(§4) MBP (BRL/GIBCO, Grand Island, N.Y.) was used as a substrate in the assay and the in-gel kinase assay was performed as previously described (Wang et al., 1992). Briefly, 10% SDS-polyacrylamide gel (SDS-PAG) was copolymerized with 0.4 mg/ml MBP. Cellular proteins were resolved in the MBP-immobilized SDS-PAG, followed by rinsing the gel with 20% isopropanol in buffer B (100 mM Tris, pH 8, 5 mM β-mercaptoethanol). The gel was denatured in buffer B supplemented with 6 M guanidine-HCl and renatured with buffer B supplemented with 0.04% Tween 40 (Kameshita and Fujisawa, 1989). Kinase reaction was carried out by incubating the gel with kinase buffer (20 Mm Tris, pH 7.2, 10 mM MgCl2, 15 mM β-glycerolphosphate) supplemented with 50 μM γATP and 50 μCi of [γ-^32P]ATP at 22° C. for 30 min. The gel was washed with 1% sodium pyrophosphate in 5% trichloroacetic acid. Protein kinases which phosphorylated MBP in the gel were detected by autoradiography of the [γ^32P]-labeled MBP.

p63^Krsl = assay: In-gel kinase assay (MBP substrate) of p63^Krsl activity in treated NIH3T3 cultures; settings: quiescent NIH3T3 cultures stimulated with reagent
Procedure: as §1
Mouse 10T1/2 fibroblast cultures were maintained in Basal medium Eagle (BRL/GIBCO, Grand Island, N.Y.) supplemented with 10% heat-inactivated fetal bovine serum, 50 U/ml penicillin, and 5 μg/ml streptomycin, and cultivated at 37° C. Cells synchronized in quiescent state were growth-arrested by serum starvation for 48 hr. […]
Cells were lysed with 30 strokes of a tight-fitting Dounce homogenizer in lysis A buffer (10 mM KH2PO4, 1 mM EDTA, 5 mM EGTA, 10 mM MgCl2, 50 mM […], 1 mM Na3VO4, 2 mM dithiothreitol) (Wang et al., 1992). […] Protein concentration in S20 was measured by using the BCA assay (Pierce, Rockford, Ill.). […]
MBP (BRL/GIBCO, Grand Island, N.Y.) was used as a substrate in the assay and the in-gel kinase assay was performed as previously described (Wang et al., 1992). […] Protein kinases which phosphorylated MBP in the gel were detected by autoradiography of the [γ^32P]-labeled MBP.

p44/42^Erk = settings: quiescent NIH3T3 cultures (48 hr serum starvation) stimulated with reagent, 1-6 hr
Procedure: as §1, §2, §3, §4

| Molecule | induction of p33^QIK activity (p33^QIK; cultures preincubated with caspase inhibitor prior to serum starvation and osmotic stress) | kinase activity of p63^Krsl (p63^Krsl) | kinase activity of p33^QIK (p33^QIK) | kinase activity of p44/42^Erk (p44/42^Erk) |
| --- | --- | --- | --- | --- |
| COC(=O)C[C@H](NC(=O)[C@H](C)NC(=O)[C@@H](NC(=O)OCc1ccccc1)C(C)C)C(=O)CF [Z-VAD-FMK] (Cbz-Val-Ala-Asp(OMe)-CH2F) | neither blocked induction of p33^QIK activity | – | – | – |
| C=C1[C@@H](O)[C@@H]2O[C@]3(CC[C@H](/C=C/[C@@H](C)[C@@H]4CC(C)=C[C@@]5(O[C@H](C[C@@](C)(O)C(=O)O)CC[C@H]5O)O4)O3)CC[C@H]2O[C@@H]1[C@@H](O)C[C@H](C)[C@H]1O[C@@]2(CCCCO2)CC[C@H]1C [okadaic acid] | – | activated p63^Krsl | did not result in deactivation of p33^QIK | – |
| CCCCCCCCCCCCCC(=O)O[C@@H]1[C@@H](C)[C@@]2(O)[C@@H](C=C(CO)C[C@]3(O)C(=O)C(C)=C[C@@H]23)[C@H]2C(C)(C)[C@]12OC(C)=O [phorbol ester, 12-0-tetradecanoylphorbol 13-acetate] | – | – | progressive decrease of p33^QIK activity | transient induction of p44/42^Erk activity |
| [F-].[Na+] [sodium fluoride] | – | – | resulted in deactivation of p33^QIK | induced p44/42^Erk activity |
| sodium orthovanadate [sodium vanadate] | – | – | accelerated deactivation of p33^QIK | profound and constant activation of p44/42^Erk |
